Laboratory results as given in patent US20140227173A1, “CANCER TREATMENT WITH GAMMA-SECRETASE INHIBITORS” (The Johns Hopkins University, priority 2006, published 2014).

Key:
Type in all cases: cell-based
Akt = Akt phosphorylation and cleaved Caspase 3 (Western blot) in DAOY medulloblastoma cells
Method: (A) Increase of cleaved Caspase 3 and loss of Akt phosphorylation is induced by 0.4 uMor higher levels of GSI-18, while overall levels of Akt and GAPDH are unchanged in DAOY medulloblastoma cells. (B) Cell death in 2 uM GSI-18 is reduced in a representative subclone of DAOY expressing activated Akt as compare to vector transfected cells. (C) Loss of Akt phosphorylation and activation of Caspase3 cleavage is induced by 2 μM or higher levels of GSI-18, while overall levels of Akt and GAPDH are unchanged in GBM neurosphere cells.
It has previously been shown that Akt is a critical effector of Notch-regulated survival and growth outside the brain (26, 27). Therefore, it was examined whether Akt was also a mediator of the pro-survival and pro-growth effects of Notch in brain tumors. GSI-18 blocks the phosphorylation of Akt required for its activation at concentrations as low as 0.4 μM (FIG. 7F). […] Thus the pro-survival effects of Notch signaling in MB appear to be mediated at least in part by Akt.
Quantitative RT PCR for Notch1, Notch2 and Hes1 was performed as previously described (29), with all reactions normalized to actin (Applied Biosystems, Foster City, Calif.). Commercially available Assay on Demand Taqman primers and probes were used to measure mRNA for Nestin, Bmi1, Tuj1 and GABRA6. Western blots contained 20 μg of protein per lane on a 10% Tris-glycine SDS-PAGE gel (Invitrogen). […]

DAOY:NICD2 [1] = experiment: Side population (Hoechst 33342 excretion) flow cytometry; conditions: 2 μM GSI-18 or verapamil
Method: (§1) The ability to excrete Hoechst dye, which defines SP (also known as “side population”) in flow cytometric analyses, is another marker of tumor-initiating CSC in the blood and brain (7, 8, 20). SP was therefore analyzed to obtain a second measure of the effects of Notch on CSC.
(§2) Flow cytometric analysis of S-phase fraction and cell cycle kinetics was performed using a FACSCalibur (Becton Dickinson, San Jose, Calif.) with CELL Quest, version 3.3 software (15). CD133 studies were performed using the same instrument, with antibodies from Miltenyi (Miltenyi Biotec, Auburn, Calif.) according to the manufacturer's instructions. […] Prior to analysis, cells were washed and resuspended in 2 μg/ml PI (Sigma, St. Louis, Mo.). […] To ensure proper identification of SP cells, cells were incubated as above with the addition of 50 μM verapamil (Sigma).

DAOY = experiment: as above; conditions: DAOY; 2 μM; untreated SP 1.9%
Method: as §1, §2

D283Med = experiment: as above; conditions: D283Med; 2 μM GSI-18 or verapamil
Method: as §1, §2

D425Med = experiment: as above; conditions: D425Med; 2 μM GSI-18 or verapamil
Method: as §1, §2

DAOY:NICD2 [2] = experiment: Flow cytometric analysis of CD133-positive fraction; conditions: DAOY:NICD2 expressing truncated Notch2; 2 μM
Method: Consistent with the hypothesis that Notch is important in CSC, gain or loss of pathway activity modulated the size of the CD133-expressing stem-like subpopulation (FIG. 4B). This fraction was elevated to 17.2% in DAOY cells stably transfected with a plasmid encoding the constitutively active Notch2 intracellular domain (DAOY:NICD2). In contrast, Notch pathway inhibition using GSI-18, a potent sulfonamide GSI (21), reduced the CD133-positive stem-like fraction […] to 3.3% (p<0.01). […] 2 μM GSI-18 was used in these experiments, as both mRNA and protein levels of the Notch pathway target Hes1 are reduced over 70% after 48 hours by this concentration of the drug (FIG. 4E).
The DAOY, PFSK, D283 and D425 Med cell lines were obtained from the American Type Culture Collection. The low-passage MB line MB2 was derived from a tumor resected at Johns Hopkins Hospital. […] Cell mass was measured using CellTITER assays according to the manufacturer's instructions (Promega, Madison, Wis.). Cell number and viability were assessed using the Guava PCA and Viacount reagent according to instructions (Guava Technologies, Heyward, Calif.). Soft agar assays were performed as previously described (15) and scored either manually after 4 weeks or using as automated reader after 6 weeks. […] Soft agar assays were performed as previously described, with colonies counted using an automated reader (15). […]

O=S(=O)(NC1C2CCC1Cc1ccccc1C2)c1cccs1 (stereo not drawn) [GSI-18, [11-endo]-N-(5,6,7,8,9,10-hexahydro-6,9-methanobenzo[α][8]annulen-11-yl)-thiophene-2-sulfonamide]
levels inducing increase of cleaved Caspase 3 and loss of Akt phosphorylation (Akt; DAOY medulloblastoma cells): ≥ 0.4 µM
concentrations blocking the phosphorylation of Akt (Akt; MB cells): ≥ 0.4 µM
side population under NICD2 expression (DAOY:NICD2 [1]): protected the SP from GSI-18 exposure
remaining cells negative for Hoechst dye (side population) (DAOY): 0.01%
side population (D283Med): ablated
side population (D425Med): ablated
sensitivity of CD133-positive fraction to the inhibitor (DAOY:NICD2 [2]): insensitive to GSI-18
